{"source": "patent US20140288102A1", "about": "“PREVENTION OF RECURRENCES OF URETHRAL STRICTURES FOLLOWING CONVENTIONAL THERAPY” (priority 2007, published 2014)", "key": {"New Zealand male rabbits [1]": {"test_system": "New Zealand male rabbits", "test": "Prevention of the onset of urethral strictures after electrocoagulation of the bulbar urethra (Example 1)", "format": "in vivo, rabbit", "description": "Near-circumferential, 15 mm long electrocoagulation of the bulbar urethra was performed endoscopically on 20 New Zealand male rabbits using a pediatric resectoscope and a round-ended electrocautery. The rabbits were randomized into 2 groups of 10 animals each. The first group received a diet containing 10 mg/kg of Halofuginone initiated 4 days before electrocoagulation and continued for 3 weeks. The second group received a standard chow, free of Halofuginone. Three weeks after electrocoagulation, the rabbits were examined by video urethrocystoscopy and retrograde urethrocystography and subsequently sacrificed for histological examination. The urethra was removed in one piece and fixed in 10% buffered formaldehyde. The histological examination was performed after the specimens were embedded in paraffin and stained with Masson trichrome, hematoxylin-eosin, and Sirius Red (IMEB, Inc., Chicago, Ill.) in order to evaluate fibrosis. With the latter staining method, collagen appears in red."}, "New Zealand male rabbits [2]": {"test_system": "New Zealand male rabbits", "test": "Prevention of the recurrence of urethral strictures following endoscopic internal urethrotomy (Example 2)", "format": "in vivo, rabbit", "description": "Near-circumferential, 15 mm long electrocoagulation of the bulbar urethra was performed endoscopically on 48 New Zealand male rabbits using a pediatric resectoscope and a round-ended electrocautery. Three weeks after electrocoagulation, the urethral strictures were evaluated using video urethrocystoscopy and retrograde urethrocystography. […] The urethral lumen was reduced by 70-95% (mean 88.5%). The obtained strictures were 7 to 19 mm in length (mean 11.7). Endoscopic internal urethrotomy was performed on all surviving rabbits using a cold knife, under visual guidance with a 0.028-inch diameter endoscopic guidewire. A single deep incision was made at the 12 o'clock position in all animals. The rabbits were subsequently randomized into 2 groups: one study group receiving Halofuginone for 10 weeks starting on the day of the urethrotomy, and one control group without Halofuginone. The study group was fed on a diet containing 10 mg/kg of Halofuginone, whereas the control group received a normal, Halofuginone-free diet. The rabbits were then monitored and evaluated for urethral strictures if any of the following signs appeared: decrease in 24-hour urine output, anorexia, worsening of general health status with palpable bladder distension. In the absence of any of these signs, the animals were systematically evaluated for urethral strictures 10 weeks after urethrotomy. This evaluation was performed using video urethrocystoscopy and retrograde urethrocystography. Thereafter, the rabbits were sacrificed for histological examination. The entire urethra was removed and fixed in 10% buffered formaldehyde. The histological examination was performed after the specimens had been embedded in paraffin and stained with Masson trichrome, hematoxylin-eosin, and Sirius Red (IMEB, Inc., Chicago, Ill.) in order to evaluate fibrosis. With the latter staining method, collagen appears in red."}, "[3]": {"settings": "the 2 treated rabbits with significant stricture, 3 weeks after electrocoagulation"}}, "note": "Several values for one entry are separate records, joined by “and”; a condition that tells them apart may be missing. Identical values can stand only once. Entries after “also recorded” stand apart in the source; their conditions may differ."}
{"smiles": "O=C(CC1NCCC[C@H]1O)Cn1cnc2cc(Br)c(Cl)cc2c1=O", "note": "(stereo partly drawn) [Halofuginone]", "values": [{"measurement": "Nr. of urethral strictures (rabbits with significant urethral stricture)", "setting": "New Zealand male rabbits [1]; 10 rabbits, diet containing 10 mg/kg Halofuginone from 4 days before electrocoagulation, continued 3 weeks, evaluated at 3 weeks, control 10 of 10, p<0.001", "result": 2}, {"measurement": "number of rabbits with normal urethra", "setting": "New Zealand male rabbits [1]; of 10 treated rabbits, 3 weeks after electrocoagulation", "result": 6}, {"measurement": "length of the significant strictures", "setting": "New Zealand male rabbits [1]; [3]", "result": "10 mm and 8 mm"}, {"measurement": "reduction in urethral lumen caliber in the significant strictures", "setting": "New Zealand male rabbits [1]; [3]", "result": "70% and 90%"}, {"measurement": "histological study of the urethra (fibrosis)", "setting": "New Zealand male rabbits [1]; treated rabbits without significant stricture", "result": "only focal alterations, with limited areas of fibrosis alternating with subnormal or normal urethral walls"}, {"measurement": "narrowing of the urethral lumen", "setting": "New Zealand male rabbits [1]; two other treated rabbits, 3 weeks after electrocoagulation", "result": "less than 30%"}, {"measurement": "retrograde urethrocystogram of the bulbar urethra", "setting": "New Zealand male rabbits [2]; a rabbit of the study group, 10 weeks after internal urethrotomy, FIG. 2B", "result": "no recurrent stricture was seen"}, {"measurement": "Post-urethrotomy recurrent stricture, Nr./total Nr.", "setting": "New Zealand male rabbits [2]; diet containing 10 mg/kg Halofuginone for 10 weeks from day of urethrotomy, control 14/19, P 0.005", "result": "5/18"}, {"measurement": "Post-urethrotomy recurrent stricture (%)", "setting": "New Zealand male rabbits [2]; diet containing 10 mg/kg Halofuginone for 10 weeks from day of urethrotomy, control 73, P 0.005", "result": 27, "unit": "%"}, {"measurement": "Nr. according to extent of histological fibrosis: Moderate to severe", "setting": "New Zealand male rabbits [2]; of 18 rabbits, control 2 of 19", "result": 1}, {"measurement": "Nr. according to extent of histological fibrosis: Mild or absent", "setting": "New Zealand male rabbits [2]; of 18 rabbits, control 5 of 19", "result": 13}, {"measurement": "Nr. according to extent of histological fibrosis: Severe", "setting": "New Zealand male rabbits [2]; of 18 rabbits, control 12 of 19", "result": 4}, {"measurement": "histological study of the site of the prior urethrotomy (fibrosis)", "setting": "New Zealand male rabbits [2]; rabbits with no recurrence of stricture, FIG. 3", "result": "no fibrosis or minimal fibrosis; also recorded: minimal fibrosis"}, {"measurement": "Post-urethrotomy recurrent stricture, average length", "setting": "New Zealand male rabbits [2]; recurrent strictures in Halofuginone group, control 11.4", "result": 7.2, "unit": "mm"}, {"measurement": "Post-urethrotomy recurrent stricture, average reduction of lumen", "setting": "New Zealand male rabbits [2]; recurrent strictures in Halofuginone group, control 82.9", "result": 92, "unit": "%"}, {"measurement": "number of rabbits with recurrent stricture diagnosed at the 10-week evaluation", "setting": "New Zealand male rabbits [2]; study group", "result": 2}, {"measurement": "number of rabbits that developed no recurrence of urethral stricture", "setting": "New Zealand male rabbits [2]; study group, 18 evaluable rabbits", "result": 13}, {"measurement": "number of rabbits with recurrence suspected on clinical signs and confirmed radiologically and endoscopically", "setting": "New Zealand male rabbits [2]; study group, before the 10-week evaluation", "result": 3}]}
